Measured values published in PubChem BioAssay (NCI).
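Where inhibition never reached the appropriate level, the endpoint shown equals the highest concentration tested. Otherwise, values were interpolated linearly from a five-concentration, 48-hour dose response in 96-well plates. TGI is the concentration that stops growth completely.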

Tests used:
Assay in all cases: DTP human tumour cell line panel, 48 h
[1] = tested on: IGROV1 ovarian
[2] = tested on: MDA-MB-231 breast
[3] = tested on: PC-3 prostate
[4] = tested on: MDA-N
[5] = tested on: OVCAR-8 ovarian
[6] = tested on: DU-145 prostate
[7] = tested on: HS 578T breast
[8] = tested on: KM12 colon
[9] = tested on: SK-MEL-28 melanoma
[10] = tested on: 786-0 renal
[11] = tested on: SN12C renal
[12] = tested on: NCI-H522 lung
[13] = tested on: SF-268 CNS
[14] = tested on: SK-OV-3 ovarian
[15] = tested on: HL-60(TB) leukemia
[16] = tested on: MDA-MB-435
[17] = tested on: LOX IMVI melanoma
[18] = tested on: NCI/ADR-RES ovarian
[19] = tested on: HT29 colon
[20] = tested on: TK-10 renal
[21] = tested on: HOP-92 NSCLC
[22] = tested on: A498 renal
[23] = tested on: SNB-19 CNS
[24] = tested on: OVCAR-5 ovarian
[25] = tested on: HOP-62 NSCLC
[26] = tested on: OVCAR-4 ovarian
[27] = tested on: UACC-62 melanoma
[28] = tested on: MCF7 breast
[29] = tested on: RXF 393 renal
[30] = tested on: HCT-15 colon
[31] = tested on: UO-31 renal
[32] = tested on: SF-295 CNS
[33] = tested on: OVCAR-3 ovarian
[34] = tested on: NCI-H226 lung
[35] = tested on: SR leukemia
[36] = tested on: NCI-H460 lung
[37] = tested on: SW-620 colon
[38] = tested on: ACHN renal
[39] = tested on: K-562 leukemia
[40] = tested on: A549 NSCLC
[41] = tested on: T-47D breast
[42] = tested on: NCI-H23 lung
[43] = tested on: MOLT-4 leukemia
[44] = tested on: CAKI-1 renal
[45] = tested on: RPMI-8226 leukemia
[46] = tested on: EKVX NSCLC
[47] = tested on: SF-539 CNS
[48] = tested on: M14 melanoma
[49] = tested on: U251 CNS
[50] = tested on: SNB-75 CNS
[51] = tested on: BT-549 breast
[52] = tested on: SK-MEL-5 melanoma
[53] = tested on: MALME-3M melanoma
[54] = tested on: HCT-116 colon
[55] = tested on: HCC-2998 colon
[56] = tested on: COLO 205 colon

Measured: TGI

CNC(=O)CCC(NC(=O)OC(C)(C)C)C(=O)NC(Cc1ccc(NC(=O)CCCCC(C)=O)cc1)C(=O)NCC(=O)NC (stereo unspecified)
> 100 µM: all assays above
